Measurements from the supplement of paper PMC11061612.

Columns and labels:
Carboplatin = compound: C1CC(C1)(C(=O)[O-])C(=O)[O-].N.N.[Pt+2] [Carboplatin]; details: max 10 µM
Method in brief: (§1)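 Viability was measured with CellTiter-Glo 2.0 luminescence after 72 hours of dosing at a final DMSO of typically 0.2%, and scaled between blank-well and DMSO-well means. Beforehand, cancer cell lines sat 24 hours at 37°C and 5% CO2 in 1536-well plates in 7.5 μl DMEM/F12 or RPMI with 10% FBS. A non-linear mixed effects model fitted two-parameter logistic curves to the dose responses. The single-agent IC50 comes from these fits.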

AZD5363 = compound: C1CN(CCC1(C(=O)N[C@@H](CCO)C2=CC=C(C=C2)Cl)N)C3=NC=NC4=C3C=CN4 [AZD5363]; details: max 10 µM
Method in brief: as §1

AZD1775 = compound: C=CCn1c(=O)c2cnc(Nc3ccc(N4CCN(C)CC4)cc3)nc2n1-c1cccc(C(C)(C)O)n1 [AZD1775]
Method in brief: as §1

Trametinib = compound: CC(=O)Nc1cccc(-n2c(=O)n(C3CC3)c(=O)c3c(Nc4ccc(I)cc4F)n(C)c(=O)c(C)c32)c1 [Trametinib]; details: max 1 µM
Method in brief: as §1

Paclitaxel = compound: CC(=O)O[C@H]1C(=O)[C@@]2(C)[C@H]([C@H](OC(=O)c3ccccc3)[C@]3(O)C[C@H](OC(=O)[C@H](O)[C@@H](NC(=O)c4ccccc4)c4ccccc4)C(C)=C1C3(C)C)[C@]1(OC(C)=O)CO[C@@H]1C[C@@H]2O [Paclitaxel]; details: max 3 µM
Method in brief: as §1

Palbociclib = compound: CC(=O)c1c(C)c2cnc(Nc3ccc(N4CCNCC4)cn3)nc2n(C2CCCC2)c1=O [Palbociclib]; details: max 10 µM
Method in brief: as §1

AZD1390 = compound: CC(C)n1c(=O)n(C)c2cnc3cc(F)c(-c4ccc(OCCCN5CCCCC5)nc4)cc3c21 [AZD1390]; details: max 0.3 µM
Method in brief: as §1

Venetoclax = compound: CC1(C)CCC(CN2CCN(c3ccc(C(=O)NS(=O)(=O)c4ccc(NCC5CCOCC5)c([N+](=O)[O-])c4)c(Oc4cnc5[nH]ccc5c4)c3)CC2)=C(c2ccc(Cl)cc2)C1 [Venetoclax]; details: max 1 µM
Method in brief: as §1

Dasatinib = compound: CC1=C(C(=CC=C1)Cl)NC(=O)C2=CN=C(S2)NC3=CC(=NC(=N3)C)N4CCN(CC4)CCO [Dasatinib]; details: max 2 µM
Method in brief: as §1

SG3199 = compound: CC1=CN2[C@@H](C1)C=NC3=CC(=C(C=C3C2=O)OC)OCCCCCOC4=C(C=C5C(=C4)N=C[C@@H]6CC(=CN6C5=O)C)OC [SG3199]; details: max 0.001 µM
Method in brief: as §1

AZD2811 = compound: CCN(CCO)CCCOc1ccc2c(Nc3cc(CC(=O)Nc4cccc(F)c4)[nH]n3)ncnc2c1 [AZD2811]; details: max 1 µM
Method in brief: as §1

SN-38 = compound: CCc1c2c(nc3ccc(O)cc13)-c1cc3c(c(=O)n1C2)COC(=O)[C@]3(O)CC [SN-38]; details: max 0.3 µM
Method in brief: as §1

AZD0156 = compound: CN(C)CCCOc1ccc(-c2ccc3ncc4c(c3c2)n(C2CCOCC2)c(=O)n4C)cn1 [AZD0156]
Method in brief: as §1

AZD4320 = compound: CN(CC[C@H](CSC1=CC=CC=C1)NC2=C(C=C(C=C2)S(=O)(=O)NC(=O)C3=CC=C(C=C3)N4CCC(CC4)[C@H](C5=CC=CC=C5C6=CC=C(C=C6)Cl)O)S(=O)(=O)C(F)(F)F)CCO [AZD4320]; details: max 1 µM
Method in brief: as §1

Alisertib = compound: COc1cc(Nc2ncc3c(n2)-c2ccc(Cl)cc2C(c2c(F)cccc2OC)=NC3)ccc1C(=O)O [Alisertib]; details: max 10 µM
Method in brief: as §1

Etoposide = compound: COc1cc([C@@H]2c3cc4c(cc3[C@@H](O[C@@H]3O[C@@H]5CO[C@@H](C)O[C@H]5[C@H](O)[C@H]3O)[C@H]3COC(=O)[C@H]23)OCO4)cc(OC)c1O [Etoposide]; details: max 10 µM
Method in brief: as §1

Gefitinib = compound: COc1cc2ncnc(Nc3ccc(F)c(Cl)c3)c2cc1OCCCN1CCOCC1 [Gefitinib]; details: max 10 µM
Method in brief: as §1

Prexasertib = compound: COc1cccc(OCCCN)c1-c1cc(Nc2cnc(C#N)cn2)n[nH]1 [Prexasertib]; details: max 1 µM
Method in brief: as §1

Doxorubicin = compound: COc1cccc2c1C(=O)c1c(O)c3c(c(O)c1C2=O)C[C@@](O)(C(=O)CO)C[C@@H]3O[C@H]1C[C@H](N)[C@H](O)[C@H](C)O1 [Doxorubicin]; details: max 1 µM
Method in brief: as §1

AZD5153 = compound: COc1nnc2ccc(N3CCC(c4ccc(OCCN5CCN(C)C(=O)[C@H]5C)cc4)CC3)nn12 [AZD5153]; details: max 1 µM
Method in brief: as §1

Lapatinib = compound: CS(=O)(=O)CCNCc1ccc(-c2ccc3ncnc(Nc4ccc(OCc5cccc(F)c5)c(Cl)c4)c3c2)o1 [Lapatinib]; details: max 10 µM
Method in brief: as §1

AZD8186 = compound: C[C@@H](Nc1cc(F)cc(F)c1)c1cc(C(=O)N(C)C)cc2c(=O)cc(N3CCOCC3)oc12 [AZD8186]; details: max 10 µM
Method in brief: as §1

Crizotinib = compound: C[C@@H](Oc1cc(-c2cnn(C3CCNCC3)c2)cnc1N)c1c(Cl)ccc(F)c1Cl [Crizotinib]; details: max 10 µM
Method in brief: as §1

Savolitinib = compound: C[C@@H](c1ccc2nccn2c1)n1nnc2ncc(-c3cnn(C)c3)nc21 [Savolitinib]; details: max 1 µM
Method in brief: as §1

AZD6738 = compound: C[C@@H]1COCCN1C2=NC(=NC(=C2)C3(CC3)[S@](=N)(=O)C)C4=C5C=CNC5=NC=C4 [AZD6738]; details: max 10 µM
Method in brief: as §1

AZD5991 = compound: Cc1c2c(nn1C)CSCc1cc(n(C)n1)CSc1cc(c3ccccc3c1)OCCCc1c(C(=O)O)n(C)c3c-2c(Cl)ccc13 [AZD5991]; details: max 1 µM
Method in brief: as §1

AZD7648 = compound: Cc1cc2ncnn2cc1Nc1ncc2c(n1)n(C1CCOCC1)c(=O)n2C [AZD7648]; details: max 10 µM
Method in brief: as §1

Taselisib = compound: Cc1nc(-c2cn3c(n2)-c2ccc(-c4cnn(C(C)(C)C(N)=O)c4)cc2OCC3)n(C(C)C)n1 [Taselisib]; details: max 10 µM
Method in brief: as §1

Selumetinib = compound: Cn1cnc2c(F)c(Nc3ccc(Br)cc3Cl)c(C(=O)NOCCO)cc21 [Selumetinib]; details: max 10 µM
Method in brief: as §1

SRA737 = compound: N#Cc1cnc(Nc2cc(NC[C@H]3CNCCO3)c(C(F)(F)F)cn2)cn1 [SRA737]; details: max 10 µM
Method in brief: as §1

MK-2206 = compound: NC1(c2ccc(-c3nc4ccn5c(=O)[nH]nc5c4cc3-c3ccccc3)cc2)CCC1 [MK-2206]; details: max 10 µM
Method in brief: as §1

Gemcitabine = compound: Nc1ccn([C@@H]2O[C@H](CO)[C@@H](O)C2(F)F)c(=O)n1 [Gemcitabine]; details: max 0.3 µM
Method in brief: as §1

[1] = compound: O=C(Nc1ccc2[nH]nc(-c3ccncc3)c2c1)[C@@H]1CCN(CC(=O)N2CCN(c3ccc(-c4ncccn4)cc3)CC2)C1; details: max 5 µM
Method in brief: as §1

Olaparib = compound: O=C(c1cc(Cc2n[nH]c(=O)c3ccccc23)ccc1F)N1CCN(C(=O)C2CC2)CC1 [Olaparib]; details: max 10 µM
Method in brief: as §1

5-Fluorouracil = compound: O=c1[nH]cc(F)c(=O)[nH]1 [5-Fluorouracil]; details: max 20 µM
Method in brief: as §1

| Cell Line | IC50, cell viability 72 h (Carboplatin) | IC50, cell viability 72 h (AZD5363) | IC50, cell viability 72 h (AZD1775; max 3 µM) | IC50, cell viability 72 h (Trametinib) | IC50, cell viability 72 h (Paclitaxel) | IC50, cell viability 72 h (Palbociclib) | IC50, cell viability 72 h (AZD1390) | IC50, cell viability 72 h (Venetoclax) | IC50, cell viability 72 h (Dasatinib) | IC50, cell viability 72 h (SG3199) | IC50, cell viability 72 h (AZD2811) | IC50, cell viability 72 h (SN-38) | IC50, cell viability 72 h (AZD0156; max 3 µM) | IC50, cell viability 72 h (AZD4320) | IC50, cell viability 72 h (Alisertib) | IC50, cell viability 72 h (Etoposide) | IC50, cell viability 72 h (Gefitinib) | IC50, cell viability 72 h (Prexasertib) | IC50, cell viability 72 h (Doxorubicin) | IC50, cell viability 72 h (AZD5153) | IC50, cell viability 72 h (Lapatinib) | IC50, cell viability 72 h (AZD8186) | IC50, cell viability 72 h (Crizotinib) | IC50, cell viability 72 h (Savolitinib) | IC50, cell viability 72 h (AZD6738) | IC50, cell viability 72 h (AZD5991) | IC50, cell viability 72 h (AZD7648) | IC50, cell viability 72 h (Taselisib) | IC50, cell viability 72 h (Selumetinib) | IC50, cell viability 72 h (SRA737) | IC50, cell viability 72 h (MK-2206) | IC50, cell viability 72 h (Gemcitabine) | IC50, cell viability 72 h [1] | IC50, cell viability 72 h (Olaparib) | IC50, cell viability 72 h (5-Fluorouracil) | IC50, cell viability 72 h (AZD1775; max 1 µM) | IC50, cell viability 72 h (AZD0156; max 1 µM) |
| --- | --- | --- | --- | --- | --- | --- | --- | --- | --- | --- | --- | --- | --- | --- | --- | --- | --- | --- | --- | --- | --- | --- | --- | --- | --- | --- | --- | --- | --- | --- | --- | --- | --- | --- | --- | --- | --- |
| HARA (Squamous Cell Lung Carcinoma) | > 10000 nM | 9160 nM | 207 nM | 858 nM | 3.63 nM | 7420 nM | > 300 nM | > 1000 nM | > 2000 nM | > 1 nM | > 1000 nM | 44.5 nM | > 3000 nM | > 1000 nM | 3820 nM | 9590 nM | > 10000 nM | 13.9 nM | 577 nM | 223 nM | 7690 nM | > 10000 nM | > 10000 nM | > 1000 nM | 1730 nM | > 1000 nM | > 10000 nM | 2150 nM | > 10000 nM | 1000 nM | > 10000 nM | 56 nM | 3840 nM | > 10000 nM | 18300 nM |  |  |
| HDLM-2 (Hodgkin's Lymphoma) | > 10000 nM | > 10000 nM | 387 nM | > 1000 nM | 27.4 nM | > 10000 nM | > 300 nM | > 1000 nM | > 2000 nM | > 1 nM | > 1000 nM | 206 nM | > 3000 nM | 82.6 nM | > 10000 nM | 6080 nM | > 10000 nM | 504 nM | > 1000 nM | 936 nM | > 10000 nM | > 10000 nM | > 10000 nM | > 1000 nM | > 10000 nM | 119 nM | > 10000 nM | > 10000 nM | > 10000 nM | > 10000 nM | > 10000 nM | > 300 nM | > 5000 nM | > 10000 nM | > 20000 nM |  |  |
| MDA-MB-468 (Breast Carcinoma) | > 10000 nM | > 10000 nM | 1790 nM | 415 nM | 111 nM | > 10000 nM | > 300 nM | > 1000 nM | > 2000 nM | > 1 nM | > 1000 nM | 40 nM | > 3000 nM | 670 nM | 1520 nM | > 10000 nM |  | 618 nM | > 1000 nM | > 1000 nM | 9240 nM | 9070 nM | > 10000 nM |  | 6880 nM | > 1000 nM | > 10000 nM | > 10000 nM | > 10000 nM | > 10000 nM | 9170 nM | 263 nM | > 5000 nM | > 10000 nM | > 20000 nM |  |  |
| RH-18 (Rhabdomyosarcoma) |  |  |  |  |  |  |  |  |  | > 1 nM | > 1000 nM | > 300 nM |  |  |  |  |  | > 1000 nM | 909 nM |  |  |  |  |  | > 10000 nM |  | > 10000 nM |  |  |  |  |  |  | > 10000 nM |  | > 1000 nM | > 1000 nM |
